# Measured values reported in ChEMBL document CHEMBL1149830, “Kadsuracoccinic acids A-C, ring-A seco-lanostane triterpenes from Kadsura coccinea and their effects on embryonic cell division of Xenopus laevis” (J Nat Prod, 2008).
# Key:
# [1] = Induction of cleavage arrest in embryonic cells of stage 8 Xenopus laevis blastulae; assay type: functional, cell-based; conditions: Blastula
# [2] = Growth inhibition of embryonic cells of stage 8 Xenopus laevis blastulae at 10 ug/mL; assay type: functional; conditions: Blastula stage
# [3] = Induction of cleavage arrest in embryonic cells of stage 8 Xenopus laevis blastulae at 1 ug/mL; assay type: functional, Blastula
SMILES,IC50 [1],inhibition at 10 µg/mL [2],Activity [3]
O=c1[nH]cc(F)c(=O)[nH]1 [FLUOROURACIL],26.8 µM,47%,
C=C(C)[C@@H]1CC[C@@H]2C(=CC[C@]3(C)/C(=C(/C)CC/C=C(/C)C(=O)O)CC[C@@]23C)[C@@]1(C)CCC(=O)O [KADSURACOCCINIC ACID A],0.68 µM,,85%
